Data on three molecules can be found in publication PMC4008364, “Alleviation of behavioral hypersensitivity in mouse models of inflammatory pain with two structurally different casein kinase 1 (CK1) inhibitors” (Molecular Pain, 2014).

Residue numbers refer to the chain shown, from its start. Like-named read-outs stand apart in the source and are kept apart here.

Test [1] deals with T1, human CK1α (Homo sapiens, UniProt P48729).
T1 construct: Full-length human CK1α, CK1γ1, CK1γ2, CK1γ3; GST (N); purchased Carna Biosciences, Inc; host or cells: baculovirus system (insect cells)
T1 sequence (P48729 whole entry): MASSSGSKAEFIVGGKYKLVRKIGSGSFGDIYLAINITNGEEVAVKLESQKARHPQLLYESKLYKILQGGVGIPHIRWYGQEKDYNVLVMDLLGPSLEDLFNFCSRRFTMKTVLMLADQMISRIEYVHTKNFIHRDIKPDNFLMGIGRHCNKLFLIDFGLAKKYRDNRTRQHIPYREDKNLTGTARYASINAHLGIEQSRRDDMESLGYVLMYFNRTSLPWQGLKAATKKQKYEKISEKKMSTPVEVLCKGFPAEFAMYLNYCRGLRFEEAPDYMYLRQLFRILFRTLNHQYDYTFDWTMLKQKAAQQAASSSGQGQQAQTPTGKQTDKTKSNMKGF
Put plainly: In vitro kinase assay (QuickScout mobility shift assay), CK1α. The class given is biochemical. An excerpt: (§1) […]; Carna Biosciences, Inc., Kobe, Japan). Detailed information on the assay condition is available on the website of Carna Biosciences (http://www.carnabio.com). Full-length human CK1α, CK1γ1, CK1γ2, CK1γ3 and catalytic domain of human CK1ϵ were expressed as N-terminal GST-fusion protein using baculovirus system, and purified by using glutathione sepharose chromatography. Catalytic domain of CK1δ was expressed as N-terminal GST-fusion protein in E. coli, and purified by using glutathione sepharose chromatography.

For test [2], the target named is T2, CK1δ (Homo sapiens, UniProt P48730).
T2 construct: Catalytic domain of CK1δ was expressed as N-terminal GST-fusion protein in E. coli; GST (N); purchased Carna Biosciences, Inc; host or cells: E. coli
T2 sequence (P48730 9-277 limits assumed): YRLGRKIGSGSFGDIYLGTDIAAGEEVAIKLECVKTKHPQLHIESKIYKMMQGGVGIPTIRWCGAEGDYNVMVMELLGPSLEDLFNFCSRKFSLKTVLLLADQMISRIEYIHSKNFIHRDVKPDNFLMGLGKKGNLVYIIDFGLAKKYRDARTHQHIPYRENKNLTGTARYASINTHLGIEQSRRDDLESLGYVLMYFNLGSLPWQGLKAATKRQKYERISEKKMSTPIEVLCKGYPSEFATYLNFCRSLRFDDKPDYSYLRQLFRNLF
Put plainly: In vitro kinase assay (QuickScout mobility shift assay), CK1δ. The class given is biochemical. An excerpt: (§2) Detailed information on the assay condition is available on the website of Carna Biosciences (http://www.carnabio.com). Full-length human CK1α, CK1γ1, CK1γ2, CK1γ3 and catalytic domain of human CK1ϵ were expressed as N-terminal GST-fusion protein using baculovirus system, and purified by using glutathione sepharose chromatography. Catalytic domain of CK1δ was expressed as N-terminal GST-fusion protein in E. coli, and purified by using glutathione sepharose chromatography.

For test [3], the target named is T3, human CK1ϵ (Homo sapiens, UniProt P49674).
T3 construct: catalytic domain of human CK1ϵ were expressed as N-terminal GST-fusion protein; GST (N); purchased Carna Biosciences, Inc; host or cells: baculovirus system (insect cells)
T3 sequence (P49674 9-277 limits assumed): T2 sequence (P48730 9-277 limits assumed) with T19A, D20N, A23S, I47F, T59S, R61K, A241S
Description: In vitro kinase assay (QuickScout mobility shift assay), CK1ϵ. The conditions noted are these: substrate peptide CKtide; ATP at Km 16 μM; average of duplicated experiments. The format is biochemical.
Description: as §2

Test [4] deals with T4, human CK1γ1 (Homo sapiens, UniProt Q9HCP0).
T4 construct: Full-length human CK1α, CK1γ1, CK1γ2, CK1γ3; GST (N); purchased Carna Biosciences, Inc; host or cells: baculovirus system (insect cells)
T4 sequence (Q9HCP0 whole entry): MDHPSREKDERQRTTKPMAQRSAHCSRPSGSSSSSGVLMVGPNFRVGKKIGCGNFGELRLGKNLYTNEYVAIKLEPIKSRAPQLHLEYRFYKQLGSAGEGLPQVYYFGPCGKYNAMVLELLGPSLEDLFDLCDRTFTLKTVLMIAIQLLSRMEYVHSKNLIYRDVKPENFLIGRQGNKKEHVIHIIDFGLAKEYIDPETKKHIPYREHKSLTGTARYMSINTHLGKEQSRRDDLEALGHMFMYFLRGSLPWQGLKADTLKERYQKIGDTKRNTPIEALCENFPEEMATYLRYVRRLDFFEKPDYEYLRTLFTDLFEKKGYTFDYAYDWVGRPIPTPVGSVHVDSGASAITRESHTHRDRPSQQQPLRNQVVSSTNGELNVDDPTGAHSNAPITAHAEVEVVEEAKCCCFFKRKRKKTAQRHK
Put plainly: In vitro kinase assay (QuickScout mobility shift assay), CK1γ1. The format is biochemical.
Description: as §1

The target of test [5] is T5, human CK1γ2 (Homo sapiens, UniProt P78368).
T5 construct: Full-length human CK1α, CK1γ1, CK1γ2, CK1γ3; GST (N); purchased Carna Biosciences, Inc; host or cells: baculovirus system (insect cells)
T5 sequence (P78368 whole entry): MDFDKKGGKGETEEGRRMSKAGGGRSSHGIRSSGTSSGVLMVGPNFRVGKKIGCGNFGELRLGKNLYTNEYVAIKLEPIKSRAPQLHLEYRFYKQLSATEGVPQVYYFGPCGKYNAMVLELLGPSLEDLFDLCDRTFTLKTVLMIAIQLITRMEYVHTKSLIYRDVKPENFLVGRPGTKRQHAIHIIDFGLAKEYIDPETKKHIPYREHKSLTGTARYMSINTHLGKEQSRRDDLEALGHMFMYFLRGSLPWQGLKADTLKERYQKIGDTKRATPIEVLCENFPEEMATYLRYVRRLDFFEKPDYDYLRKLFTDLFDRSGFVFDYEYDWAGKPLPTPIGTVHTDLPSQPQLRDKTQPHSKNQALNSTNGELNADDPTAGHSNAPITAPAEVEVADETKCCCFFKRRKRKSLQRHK
Put plainly: In vitro kinase assay (QuickScout mobility shift assay), CK1γ2. The class given is biochemical.
Description: as §2

Test [6] has as its target T6, human CK1γ3 (Homo sapiens, UniProt Q9Y6M4).
T6 construct: Full-length human CK1α, CK1γ1, CK1γ2, CK1γ3; GST (N); purchased Carna Biosciences, Inc; host or cells: baculovirus system (insect cells)
Put plainly: In vitro kinase assay (QuickScout mobility shift assay), CK1γ3. As to conditions: substrate peptide CKtide; ATP at Km 3.2 μM; average of duplicated experiments. The class given is biochemical.
Description: as §2

For test [7], the system named is carrageenan-induced inflammatory pain in mice. Put plainly: Carrageenan-induced acute inflammatory pain behaviors, intrathecal injection. The format is in vivo, mouse. As to conditions: for withdrawal latency of the ipsilateral hind paw (thermal hyperalgesia), carrageenan / withdrawal threshold of the ipsilateral hind paw (mechanical allodynia), carrageenan: i.t., IC261 0.1-1 nmol, TG003 0.1-100 pmol. The method, then:
(§3) Male C57BL/6 J mice (5 weeks old) were purchased from Clea Japan, Inc. (Tokyo, Japan) and housed under controlled temperature (24 ± 1°C) and humidity (55 ± 10%) with a 12-hour light-dark cycle with food and water freely available. The animal experiments were approved by the Animal Care Committees of Tokyo Medical and Dental University (approval No. 0090173) and Kagoshima University (approval No. MD10053), and were conducted in accordance with the ethical guidelines for the study of experimental pain in conscious animals published by the International Association of the Study of Pain (1995) and the European Communities Council Directive of 24 November, 1986 (86/609/EEC).
(§4) To produce acute and persistent inflammatory pain, carrageenan (2% lambda carrageenan in saline, 25 μl, Sigma, St. Louis, MO) and complete Freund’s adjuvant (CFA, 25 μl, Sigma) were injected into the plantar surface of the right hindpaw under light halothane anesthesia, respectively. Control mice were treated with saline or incomplete Freund’s adjuvant (IFA, Sigma), respectively. Mechanical allodynia and thermal hyperalgesia were measured using the Dynamic Plantar Aesthesiometer (Ugo Basile, Comerio VA, Italy) and the Paw Thermal Stimulator (UCSD, San Diego, CA, USA), respectively as described. In CFA model, these behavioral experiments were conducted 3 days after the injection. Intrathecal (i.t.) injection was given in a volume of 5 μl by percutaneous puncture through an intervertebral space at the level of the 5th or 6th lumbar vertebra, according to a previously reported procedure. An investigator, who was unaware of the drug treatment, performed all of the behavioral experiments.

For test [8], the system named is CFA-induced inflammatory pain in mice. Description: CFA-induced persistent inflammatory pain behaviors, intrathecal injection. The class given is in vivo, mouse. As to conditions: for withdrawal latency of the ipsilateral hind paw (thermal hyperalgesia), CFA / withdrawal threshold of the ipsilateral hind paw (mechanical allodynia), CFA: i.t., IC261 0.1-1 nmol, TG003 0.1-100 pmol, 3 days after CFA. The method, then: as §3, §4

Test [9] deals with substantia gelatinosa neurons. Put plainly: Whole-cell patch-clamp recording of sEPSCs in spinal cord slices. The format is cell-based, mouse. The conditions noted are these: for frequency and amplitude of sEPSCs, control mice: 1 μM superfusion, slices from control mice, holding potential -70 mV; for mean frequency of sEPSCs in inflammatory pain model mice: 1 μM, carrageenan- and CFA-inflamed mice. The method, then: (§5) Adult mouse spinal cord slices were prepared according to the method of Yoshimura & Jessell. Briefly, 6 hours after carrageenan or saline injection, and 3 days after CFA or IFA injection, transverse slices (thickness, 800-900 μm) of the L5 spinal segments with the L5 dorsal root attached were cut on a vibrating blade microtome. The slices were superfused with Krebs solution (10-15 ml/min) saturated with 95% O2 and 5% CO2 at 36 ± 1°C. The composition of Krebs solution was as follows (in mM): NaCl 117; KCl 3.6; NaHCO3 25; NaH2PO4 1.2; CaCl2 2.5; MgCl2 1.2, and glucose 11 (pH 7.4 after gas saturation).
Blind whole-cell patch-clamp recordings were made from the lamina II (substantia gelatinosa: SG) neurons ipsilateral to carrageenan, CFA, or vehicle (saline or IFA) injection in voltage clamp mode. Patch pipettes were fabricated from thin-walled, borosilicate, glass-capillary tubing (1.5 mm o.d., World Precision Instruments). After establishing the whole-cell configuration, neurons were held at the potential of -70 mV to record spontaneous excitatory postsynaptic currents (sEPSCs) and at the potential of 0 mV to record spontaneous inhibitory postsynaptic currents (sIPSC). Under these conditions, GABA- and glycine-mediated IPSCs and glutamate-mediated EPSCs, respectively, were negligible, because these holding potential were close to the reversal potentials of IPSCs and EPSCs, respectively. Recording electrodes were filled with either potassium gluconate-based solution (in mM: K-gluconate 135; KCl 5; CaCl2 0.5; MgCl2 2; EGTA 5; HEPES 5; ATP-Mg 5; adjusted with KOH to pH 7.2) to investigate EPSCs, or Cs-based solution (in mM: Cs2SO4 110; tetraethylammonium 5; CaCl2 0.5; MgCl2 2; EGTA 5; HEPES 5; ATP-Mg 5; adjusted with CsOH to pH 7.2) to examine IPSCs. The resistance of a typical patch pipette is 5-10 MΩ. Membrane currents were amplified with an Axopatch 200B amplifier (Molecular Devices, Sunnyvale, CA, USA) in voltage-clamp mode. Signals were low-pass filtered at 5 kHz and digitized at 333 kHz with an A/D converter (Digidata 1322, Molecular Devices). Data were stored with a personal computer using pCLAMP10 software and analyzed with Mini Analysis software (Synaptosoft Inc., Decatur, GA, USA).
(§6) The average values of both frequency and amplitude of sEPSCs or sIPSCs during the control (1 min) and 5-10 min after the drug application (1 min period after the attainment of steady effect of each drug) were calculated and quantified as relative changes in frequency and amplitude.
On the technique in general: In patch-clamp work, channel activity is measured electrically.

Test [10] has as its system substantia gelatinosa neurons. Description: Whole-cell patch-clamp recording of sIPSCs in spinal cord slices. The format is cell-based, mouse. The conditions noted are these: 1 μM, holding potential 0 mV. The method, then:
as §5
Blind whole-cell patch-clamp recordings were made from the lamina II (substantia gelatinosa: SG) neurons ipsilateral to carrageenan, CFA, or vehicle (saline or IFA) injection in voltage clamp mode. Patch pipettes were fabricated from thin-walled, borosilicate, glass-capillary tubing (1.5 mm o.d., World Precision Instruments). […] Data were stored with a personal computer using pCLAMP10 software and analyzed with Mini Analysis software (Synaptosoft Inc., Decatur, GA, USA).
as §6

The target of test [11] is T7, CK1ϵ (Homo sapiens, UniProt P49674).
T7 construct: F2A peptide (self-cleaving link to EGFP; its remnant stays on the CK1 C-terminus) (C); expressed in transfected cells; co-expressing mCherry-PER3
T7 sequence (P49674 whole entry): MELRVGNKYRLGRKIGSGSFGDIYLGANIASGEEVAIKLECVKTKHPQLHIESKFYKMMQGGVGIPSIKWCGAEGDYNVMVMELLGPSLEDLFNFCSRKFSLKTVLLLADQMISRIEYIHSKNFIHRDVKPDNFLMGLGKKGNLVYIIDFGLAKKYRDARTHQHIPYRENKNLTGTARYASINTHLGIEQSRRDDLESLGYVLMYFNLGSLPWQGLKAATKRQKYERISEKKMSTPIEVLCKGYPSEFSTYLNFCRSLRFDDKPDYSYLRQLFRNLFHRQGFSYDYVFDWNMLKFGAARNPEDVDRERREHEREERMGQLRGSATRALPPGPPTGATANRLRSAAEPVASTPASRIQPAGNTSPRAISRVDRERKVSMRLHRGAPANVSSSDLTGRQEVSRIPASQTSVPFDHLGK
Description: PER3 nuclear translocation assay, HEK293 cells expressing CK1ϵ. The class given is cell-based. As to conditions: 1 hour pre-incubation, 8 hours doxycycline.

Test [12] relates to Clk1. Set-up: method as in PMID 15010457. As to conditions: range given for Clk1 and 4 isoforms together; read-out: IC50 against Clk1; cited from earlier work.
The target in test [13] is CK1δ (Homo sapiens, UniProt P48730). Description: PER3 nuclear translocation assay, HEK293 cells expressing CK1δ. As to conditions: 30 μM, 1 hour pre-incubation, 8 hours doxycycline.

T6 sequence (Q9Y6M4 whole entry): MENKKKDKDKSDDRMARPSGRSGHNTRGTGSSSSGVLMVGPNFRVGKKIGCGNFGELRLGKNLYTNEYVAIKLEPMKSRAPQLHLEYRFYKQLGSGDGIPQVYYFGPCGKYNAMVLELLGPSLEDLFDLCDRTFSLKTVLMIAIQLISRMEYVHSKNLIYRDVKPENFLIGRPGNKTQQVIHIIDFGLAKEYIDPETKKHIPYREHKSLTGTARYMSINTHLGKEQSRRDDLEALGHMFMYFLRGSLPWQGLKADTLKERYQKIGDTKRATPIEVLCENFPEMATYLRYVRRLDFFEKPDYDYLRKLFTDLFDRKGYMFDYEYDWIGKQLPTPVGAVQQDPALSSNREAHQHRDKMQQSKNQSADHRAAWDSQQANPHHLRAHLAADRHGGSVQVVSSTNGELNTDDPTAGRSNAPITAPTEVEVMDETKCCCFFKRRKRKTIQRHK

In general, IC50 refers to the midpoint of a concentration-inhibition curve. In the case of `COc1cc(OC)c(C=C2C(O)=Nc3ccccc32)c(OC)c1` [IC261], the IC50 in test [1] is 190 nM; in test [2], 600 nM; in test [3], 860 nM; in test [4] it was more than 30000 nM; in test [5], more than 30000 nM; in test [6], more than 30000 nM. Also, the “withdrawal latency of the ipsilateral hind paw (thermal hyperalgesia), carrageenan” value in [7] is “dose-dependently increased”. Moreover, the “withdrawal threshold of the ipsilateral hind paw (mechanical allodynia), carrageenan” value in test [7] is recorded as “dose-dependently increased”. In addition, the “development of thermal hyperalgesia induced by carrageenan” value in [7] (spinal preemptive treatment, i.t. 30 min before carrageenan) is listed as “dose-dependently attenuated”. Further, in test [8], the “withdrawal latency of the ipsilateral hind paw (thermal hyperalgesia), CFA” value is reported as “dose-dependently increased”. In addition, the “withdrawal threshold of the ipsilateral hind paw (mechanical allodynia), CFA” value in [8] is on record as “dose-dependently increased”. Also, in [9], the “frequency and amplitude of sEPSCs, control mice” value is “altered neither the frequency nor the amplitude of sEPSCs”. The “mean frequency of sEPSCs in inflammatory pain model mice” value in [9] is “decreased”. Besides, in test [10] (carrageenan- and CFA-inflamed mice), the “sIPSCs from the inflamed mice” value is on record as “did not affect sIPSCs”. Further, in test [10] (control mice), the “mean amplitude of control sIPSCs” value is recorded as “slight but significant reduction”.
As to `CCN1/C(=C/C(C)=O)Sc2ccc(OC)cc21` [TG003], the IC50 in test [1] (substrate peptide CKtide, ATP at Km 4.1 μM, average of duplicated experiments, read-out: IC50 on the kinase activity of CK1α) was 330 nM. Also, the IC50 in test [4] (substrate peptide CKtide, ATP at Km 6.3 μM, average of duplicated experiments, read-out: IC50 on the kinase activity of CK1γ1) was determined as 1500 nM. Further, the “CK1ϵ-induced nuclear translocation of mCherry-PER3” value in [11] (30 μM) is listed as “inhibited the nuclear translocation of mCherry-PER3”. In [7], the “withdrawal latency of the ipsilateral hind paw (thermal hyperalgesia), carrageenan” value is listed as “dose-dependently increased” and the “withdrawal threshold of the ipsilateral hind paw (mechanical allodynia), carrageenan” value is “dose-dependently increased”. In addition, in [8] (1 pmol i.t.), the CFA-induced mechanical allodynia entry is listed as “significantly reversed” and the CFA-induced thermal hyperalgesia result is reported as “did not affect”. Besides, in test [8], the “withdrawal latency of the ipsilateral hind paw (thermal hyperalgesia), CFA” value is on record as “dose-dependently increased” and the “withdrawal threshold of the ipsilateral hind paw (mechanical allodynia), CFA” value is given as “dose-dependently increased”. Further, in test [9], the “frequency and amplitude of sEPSCs, control mice” value is “altered neither the frequency nor the amplitude of sEPSCs”; the “mean frequency of sEPSCs in inflammatory pain model mice” value is recorded as “decreased”. Also, the IC50 in test [12] was […]. The “CK1δ-induced nuclear translocation of mCherry-PER3” value in test [13] is on record as “inhibited the nuclear translocation of mCherry-PER3”.
`Nc1nccc(-c2c(-c3ccc(F)cc3)ncn2C2CCCCC2)n1` [PF-670462]: the “CK1ϵ-induced nuclear translocation of mCherry-PER3” value in [11] (1 μM) is reported as “also inhibited the nuclear translocation”.
